Assay type in all cases: cell-based
Assay [1] has as its target T1, HER2 S310F (Homo sapiens, UniProt P04626, S310F).
T1 construct: expressed in transfected cells; host or cells: BaF3 (murine pro-B)
Put plainly: Activity for inhibiting HER2 (Table B), HER2 S310F. The settings on record: read-out: HER2 S310F, potency code (IC50). The method, then: (§1) EC50 values were determined with the same application.

In assay [2] the target is T2, HER2 YVMA (Homo sapiens, UniProt P04626, INS775YVMA).
T2 construct: expressed in transfected cells; host or cells: BaF3 (murine pro-B)
T2 sequence (P04626 with tags, fused parts or gaps INS775YVMA): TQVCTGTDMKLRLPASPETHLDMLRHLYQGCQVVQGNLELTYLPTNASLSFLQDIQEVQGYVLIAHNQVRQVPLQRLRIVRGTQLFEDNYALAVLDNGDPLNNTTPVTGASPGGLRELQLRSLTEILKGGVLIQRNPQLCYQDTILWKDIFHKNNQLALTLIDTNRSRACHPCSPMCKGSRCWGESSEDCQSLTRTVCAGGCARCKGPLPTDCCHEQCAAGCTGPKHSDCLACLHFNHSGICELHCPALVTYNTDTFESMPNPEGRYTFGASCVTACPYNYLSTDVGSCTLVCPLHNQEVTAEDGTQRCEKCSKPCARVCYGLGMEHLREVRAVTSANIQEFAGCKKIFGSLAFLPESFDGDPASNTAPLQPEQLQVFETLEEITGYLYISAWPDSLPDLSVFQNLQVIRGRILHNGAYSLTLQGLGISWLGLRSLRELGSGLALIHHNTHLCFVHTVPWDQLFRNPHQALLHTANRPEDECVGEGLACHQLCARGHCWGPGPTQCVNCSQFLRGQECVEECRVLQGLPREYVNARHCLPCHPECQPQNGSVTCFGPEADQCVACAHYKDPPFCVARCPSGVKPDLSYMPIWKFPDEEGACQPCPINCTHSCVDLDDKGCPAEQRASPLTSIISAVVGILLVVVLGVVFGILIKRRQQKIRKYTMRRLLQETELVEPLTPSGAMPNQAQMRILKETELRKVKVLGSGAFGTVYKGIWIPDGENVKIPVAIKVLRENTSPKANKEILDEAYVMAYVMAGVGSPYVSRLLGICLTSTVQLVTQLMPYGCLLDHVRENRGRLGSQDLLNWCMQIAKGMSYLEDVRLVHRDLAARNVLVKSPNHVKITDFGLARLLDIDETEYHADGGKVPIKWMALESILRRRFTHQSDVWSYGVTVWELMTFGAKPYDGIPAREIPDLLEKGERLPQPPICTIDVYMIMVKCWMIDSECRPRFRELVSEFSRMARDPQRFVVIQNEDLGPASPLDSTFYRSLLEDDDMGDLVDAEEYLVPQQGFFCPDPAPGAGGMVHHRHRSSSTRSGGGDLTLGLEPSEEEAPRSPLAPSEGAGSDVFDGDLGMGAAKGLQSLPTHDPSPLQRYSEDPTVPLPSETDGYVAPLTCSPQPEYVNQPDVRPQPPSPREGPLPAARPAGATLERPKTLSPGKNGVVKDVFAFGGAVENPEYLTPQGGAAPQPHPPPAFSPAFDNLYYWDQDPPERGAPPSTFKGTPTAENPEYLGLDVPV
Put plainly: BaF3 cell proliferation assay, HER2 YVMA (Table B). The settings on record: potency code, 3 days, CellTiterGlo, read-out: HER2 YVMA (Activity for Inhibiting HER2). (In general: In ATP-based viability assays light output follows the ATP content of the culture.)

Assay [3] concerns the target T3, EGFR WT (Homo sapiens, UniProt P00533). Put plainly: Activity for inhibiting EGFR (Table A), EGFR WT. To be noted: read-out: EGFR WT, potency code (IC50).
In assay [4] the target is T3, EGFR WT. The experiment in a line: BaF3 cell proliferation assay, EGFR WT (Table A). The settings on record: potency code, 3 days, CellTiterGlo, read-out: EGFR WT (Activity for Inhibiting EGFR). In short, it runs like this: (§2)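 Steps: HEK 293T transfected with pMXs-IRES-Blasticidin kinase vector plus Gag-Pol and VSV-G; virus harvested at 24 and 48 hrs; BaF3 infected twice by centrifugation, Blasticidin-selected, then grown without IL-3. Proliferation EC50 measured.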

Assay [5] has as its target T2, HER2 YVMA. Put plainly: Activity for inhibiting HER2 (Table B), HER2 YVMA. The settings on record: read-out: HER2 YVMA, potency code (IC50). As for the experimental part:
as §1

The target in assay [6] is T4, EGFR V3 (Homo sapiens, UniProt P00533, DELINS30-297G).
T4 construct: expressed in transfected cells; host or cells: BaF3 (murine pro-B), retroviral pMXs-IRES-Blasticidin
T4 sequence (P00533 with tags, fused parts or gaps DELINS30-297G): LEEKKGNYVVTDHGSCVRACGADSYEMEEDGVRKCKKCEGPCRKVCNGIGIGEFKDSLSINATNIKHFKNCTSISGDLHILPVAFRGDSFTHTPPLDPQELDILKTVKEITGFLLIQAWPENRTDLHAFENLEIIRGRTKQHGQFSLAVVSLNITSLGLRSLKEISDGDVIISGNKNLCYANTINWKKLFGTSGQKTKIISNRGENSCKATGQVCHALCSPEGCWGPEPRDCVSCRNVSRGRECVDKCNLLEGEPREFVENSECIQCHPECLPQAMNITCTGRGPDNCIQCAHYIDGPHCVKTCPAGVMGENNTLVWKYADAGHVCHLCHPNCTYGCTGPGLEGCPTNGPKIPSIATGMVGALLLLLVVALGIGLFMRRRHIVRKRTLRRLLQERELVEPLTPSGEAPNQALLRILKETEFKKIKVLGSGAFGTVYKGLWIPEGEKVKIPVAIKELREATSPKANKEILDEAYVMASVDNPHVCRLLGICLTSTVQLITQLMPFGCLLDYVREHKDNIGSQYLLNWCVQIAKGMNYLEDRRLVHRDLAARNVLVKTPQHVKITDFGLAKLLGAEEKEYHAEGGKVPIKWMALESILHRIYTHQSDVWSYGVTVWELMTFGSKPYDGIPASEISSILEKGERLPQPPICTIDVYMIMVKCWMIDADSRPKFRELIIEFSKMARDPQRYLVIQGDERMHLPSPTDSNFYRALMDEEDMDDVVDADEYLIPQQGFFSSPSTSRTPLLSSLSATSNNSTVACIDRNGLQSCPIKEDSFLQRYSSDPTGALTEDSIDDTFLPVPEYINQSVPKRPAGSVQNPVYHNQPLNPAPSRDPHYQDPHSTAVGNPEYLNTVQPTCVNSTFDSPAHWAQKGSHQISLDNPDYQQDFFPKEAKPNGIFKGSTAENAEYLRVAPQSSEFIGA
The experiment in a line: Activity for inhibiting EGFR (Table A), EGFR V3 (EGFR-Viii). To be noted: read-out: EGFR V3, potency code (IC50).

Assay [7] deals with T1, HER2 S310F. Put plainly: BaF3 cell proliferation assay, HER2 S310F (Table B). To be noted: potency code, 3 days, CellTiterGlo, read-out: HER2 S310F (Activity for Inhibiting HER2).
The target in assay [8] is T4, EGFR V3. Put plainly: BaF3 cell proliferation assay, EGFR V3 (Table A). To be noted: potency code, 3 days, CellTiterGlo, read-out: EGFR V3 (Activity for Inhibiting EGFR). In short, it runs like this: as §2

Some results are limits rather than exact numbers.

T1 sequence (P04626 23-1255 S310F): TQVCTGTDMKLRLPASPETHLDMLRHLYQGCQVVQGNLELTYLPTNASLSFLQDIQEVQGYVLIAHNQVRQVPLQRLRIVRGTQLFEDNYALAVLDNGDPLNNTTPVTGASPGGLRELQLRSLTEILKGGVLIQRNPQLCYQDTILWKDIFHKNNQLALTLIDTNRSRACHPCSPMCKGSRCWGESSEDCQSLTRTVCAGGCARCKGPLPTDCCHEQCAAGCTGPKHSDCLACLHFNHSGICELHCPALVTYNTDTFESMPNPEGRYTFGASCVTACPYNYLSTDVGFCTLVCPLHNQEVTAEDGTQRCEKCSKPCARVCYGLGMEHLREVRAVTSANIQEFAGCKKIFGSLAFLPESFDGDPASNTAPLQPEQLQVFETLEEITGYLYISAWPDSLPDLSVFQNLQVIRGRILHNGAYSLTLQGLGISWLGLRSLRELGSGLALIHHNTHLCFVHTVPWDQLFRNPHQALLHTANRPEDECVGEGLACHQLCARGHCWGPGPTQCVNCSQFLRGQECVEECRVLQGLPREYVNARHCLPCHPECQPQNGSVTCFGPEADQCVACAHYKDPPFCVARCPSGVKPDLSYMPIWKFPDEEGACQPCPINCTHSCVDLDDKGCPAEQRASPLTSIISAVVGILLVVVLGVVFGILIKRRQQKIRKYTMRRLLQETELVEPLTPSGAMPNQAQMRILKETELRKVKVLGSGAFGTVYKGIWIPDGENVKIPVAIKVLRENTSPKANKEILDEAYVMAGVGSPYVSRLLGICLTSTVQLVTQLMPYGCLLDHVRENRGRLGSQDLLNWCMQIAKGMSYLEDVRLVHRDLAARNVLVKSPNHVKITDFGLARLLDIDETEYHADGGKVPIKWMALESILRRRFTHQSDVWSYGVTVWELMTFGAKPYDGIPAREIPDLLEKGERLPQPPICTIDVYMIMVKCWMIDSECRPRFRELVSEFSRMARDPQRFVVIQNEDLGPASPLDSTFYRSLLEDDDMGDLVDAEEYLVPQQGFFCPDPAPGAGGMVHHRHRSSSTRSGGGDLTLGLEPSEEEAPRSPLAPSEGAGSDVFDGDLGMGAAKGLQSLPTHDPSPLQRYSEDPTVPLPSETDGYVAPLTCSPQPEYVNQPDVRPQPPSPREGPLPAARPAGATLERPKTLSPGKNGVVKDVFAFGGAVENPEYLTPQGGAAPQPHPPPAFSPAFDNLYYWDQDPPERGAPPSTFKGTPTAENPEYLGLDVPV
T3 sequence (P00533 25-1210 N540K): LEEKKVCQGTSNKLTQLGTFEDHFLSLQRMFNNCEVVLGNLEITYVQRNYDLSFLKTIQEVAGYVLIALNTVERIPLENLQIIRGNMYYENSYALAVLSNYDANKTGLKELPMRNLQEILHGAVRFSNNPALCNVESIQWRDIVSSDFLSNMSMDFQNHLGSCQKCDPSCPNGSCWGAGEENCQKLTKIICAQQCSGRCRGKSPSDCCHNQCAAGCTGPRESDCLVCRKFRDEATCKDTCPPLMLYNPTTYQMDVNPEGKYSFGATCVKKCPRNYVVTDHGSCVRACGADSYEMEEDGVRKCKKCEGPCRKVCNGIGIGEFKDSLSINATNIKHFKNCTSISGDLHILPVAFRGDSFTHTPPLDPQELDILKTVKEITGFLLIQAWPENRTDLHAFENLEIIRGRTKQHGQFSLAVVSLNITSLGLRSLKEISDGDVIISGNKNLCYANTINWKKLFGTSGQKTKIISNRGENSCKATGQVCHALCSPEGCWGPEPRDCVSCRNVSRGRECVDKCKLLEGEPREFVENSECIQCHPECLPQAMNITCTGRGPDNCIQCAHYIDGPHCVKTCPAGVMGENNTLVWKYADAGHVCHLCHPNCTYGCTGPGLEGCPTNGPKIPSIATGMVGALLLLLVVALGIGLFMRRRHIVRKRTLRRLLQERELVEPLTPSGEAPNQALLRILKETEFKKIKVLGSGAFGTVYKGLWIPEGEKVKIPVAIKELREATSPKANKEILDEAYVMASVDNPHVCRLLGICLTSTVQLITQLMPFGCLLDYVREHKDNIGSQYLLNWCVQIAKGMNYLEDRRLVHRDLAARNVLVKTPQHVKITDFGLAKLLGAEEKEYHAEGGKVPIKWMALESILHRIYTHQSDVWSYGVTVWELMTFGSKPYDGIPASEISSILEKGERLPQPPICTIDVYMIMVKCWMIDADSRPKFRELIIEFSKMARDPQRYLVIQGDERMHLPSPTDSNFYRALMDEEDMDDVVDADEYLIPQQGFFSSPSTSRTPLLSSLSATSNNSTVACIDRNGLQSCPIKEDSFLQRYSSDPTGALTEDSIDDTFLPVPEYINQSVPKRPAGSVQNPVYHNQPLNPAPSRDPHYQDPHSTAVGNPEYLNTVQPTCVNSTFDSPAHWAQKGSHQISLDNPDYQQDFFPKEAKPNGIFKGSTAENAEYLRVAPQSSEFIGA

`C=CC(=O)Nc1cc2c(Nc3ccc(OCc4ccccn4)c(Cl)c3)ncnc2cc1OCCN1CCS(=O)(=O)CC1` [compound 125]: the IC50 in assay [1] is 100 to 200 nM; in assay [2], above 1000 nM; in assay [3], 500 to 1000 nM; in assay [4], 500 to 1000 nM; in assay [5], above 1000 nM; in assay [6], 100 to 200 nM. Moreover, the IC50 in assay [7] and in assay [8] was 100 to 200 nM in each case.

For `C=CC(=O)Nc1cc2c(Nc3ccc(OCc4ccccn4)c(Cl)c3)ncnc2cc1C#CC12CCN(CC1)CC2` [compound 126, N-(4-((3-chloro-4-(pyridin-2-ylmethoxy)phenyl)amino)-7-(quinuclidin-4-ylethynyl)quinazolin-6-yl)acrylamide], the IC50 in assay [1] lay in the range of 30 to 50 nM; in assay [2], 50 to 100 nM; in assay [3] it was 300 to 500 nM; in assay [4], 300 to 500 nM; in assay [5], 50 to 100 nM; in assay [6], 30 to 50 nM. The IC50 in assay [7] and in assay [8] was 30 to 50 nM in each case.

For `C=CC(=O)Nc1cc2c(Nc3ccc(Oc4ccc(Cl)c(F)c4)cc3)ncnc2cc1OCCN1CCOCC1` [compound 127], the IC50 is 300 to 500 nM in assay [1]; above 1000 nM in assay [2]; 500 to 1000 nM in assay [3]; 500 to 1000 nM in assay [4]; above 1000 nM in assay [5]; 50 to 100 nM in assay [6]. In addition, the IC50 in assay [7] fell in the range of 300 to 500 nM; in assay [8], 50 to 100 nM.

In the case of `C=CC(=O)Nc1cc2c(Nc3ccc(OCc4cccc(C)n4)c(Cl)c3)ncnc2cc1OCCN1CCOCC1` [compound 128], the IC50 in assay [1] fell in the range of 100 to 200 nM; in assay [2], 300 to 500 nM; in assay [3], 500 to 1000 nM; in assay [4], 500 to 1000 nM; in assay [5] it was 300 to 500 nM; in assay [6], 100 to 200 nM. In addition, the IC50 in assay [7] and in assay [8] was 100 to 200 nM in each case.

As to `C=CC(=O)Nc1cc2c(Nc3ccc(OCc4cccc(C)n4)c(Cl)c3)ncnc2cc1OCCCN1CCOCC1` [compound 129], the IC50 in assay [1] is 30 to 50 nM; in assay [2] it was 100 to 200 nM; in assay [3], 500 to 1000 nM; in assay [4], 500 to 1000 nM; in assay [5] it was 100 to 200 nM; in assay [6] it was 100 to 200 nM. The IC50 was in the range of 30 to 50 nM in assay [7] and 100 to 200 nM in assay [8].

As for `C=CC(=O)Nc1cc2c(Nc3ccc(OCc4cccc(F)c4)c(Cl)c3)ncnc2cc1OCCN1CCN(C)CC1` [compound 130], the IC50 in assay [1] is 30 to 50 nM; in assay [2], 300 to 500 nM; in assay [3], 200 to 300 nM; in assay [4] it was 200 to 300 nM; in assay [5], 300 to 500 nM; in assay [6], 100 to 200 nM. For the same molecule, the IC50 was 30 to 50 nM in assay [7] and 100 to 200 nM in assay [8].

With `C=CC(=O)Nc1cc2c(Nc3cc(Cl)c(OCc4cccc(F)c4)cc3F)ncnc2cc1OCCCN1CC(OC)C1` [compound 131], the IC50 in assay [1] was 50 to 100 nM; in assay [2], 300 to 500 nM; in assay [3], 200 to 300 nM; in assay [4] it was 200 to 300 nM; in assay [5], 300 to 500 nM; in assay [6], 200 to 300 nM. The IC50 in assay [7] lay in the range of 50 to 100 nM; in assay [8], 100 to 200 nM.

As for `C=CC(=O)Nc1cc2c(Nc3ccc(OCc4cccc(C)n4)c(Cl)c3)ncnc2cc1OCCN1CC2CCC(C1)O2` [compound 132], the IC50 was 300 to 500 nM in assay [1]; 500 to 1000 nM in assay [2]; above 1000 nM in assay [3]; above 1000 nM in assay [4]; 500 to 1000 nM in assay [5]; 300 to 500 nM in assay [6]. The IC50 in assay [7] and in assay [8] was 300 to 500 nM each time.

On to `C=CC(=O)Nc1cc2c(Nc3cc(Cl)c(OCc4cccc(F)c4)cc3F)ncnc2cc1O[C@@H]1CCN(C)C1` [compound 133], for which the IC50 in assay [1] fell in the range of 50 to 100 nM; in assay [2], 500 to 1000 nM; in assay [3], 200 to 300 nM; in assay [4], 200 to 300 nM; in assay [5], 500 to 1000 nM; in assay [6], 100 to 200 nM. The IC50 in assay [7] lay within 50 to 100 nM; in assay [8], 100 to 200 nM.

`C=CC(=O)Nc1cc2c(Nc3cc(Cl)c(OCc4cccc(F)c4)cc3F)ncnc2cc1OCCN1CC(OC)C1` [compound 134]: the IC50 in assay [1] is 30 to 50 nM; in assay [2], 300 to 500 nM; in assay [3], 200 to 300 nM; in assay [4] it was 200 to 300 nM; in assay [5], 300 to 500 nM; in assay [6], 50 to 100 nM. Moreover, the IC50 is 30 to 50 nM in assay [7] and 50 to 100 nM in assay [8].

As for `C=CC(=O)Nc1cc2c(Nc3ccc(OCc4cccc(C)n4)c(Cl)c3)ncnc2cc1OCCN1CC(OC)C1` [compound 135], the IC50 in assay [1] was in the range of 100 to 200 nM; in assay [2] it was 300 to 500 nM; in assay [3] it was 300 to 500 nM; in assay [4], 300 to 500 nM; in assay [5], 300 to 500 nM; in assay [6] it was 50 to 100 nM. For the same molecule, the IC50 in assay [7] is 100 to 200 nM; in assay [8], 50 to 100 nM.

For the molecule `CC#CC(=O)Nc1cc2c(Nc3cc(Cl)c(OCc4cccc(F)c4)cc3F)ncnc2cc1OCCCN1CC(OC)C1` [compound 136, N-(4-((5-chloro-2-fluoro-4-((3-fluorobenzyl)oxy)phenyl)amino)-7-(3-(3-methoxyazetidin-1-yl)propoxy)quinazolin-6-yl)but-2-ynamide], the IC50 was in the range of 30 to 50 nM in assay [1]; 100 to 200 nM in assay [2]; 100 to 200 nM in assay [3]; 100 to 200 nM in assay [4]; 100 to 200 nM in assay [5]; 100 to 200 nM in assay [6]. Further, the IC50 was in the range of 30 to 50 nM in assay [7] and 100 to 200 nM in assay [8].

Take `C=CC(=O)Nc1cc2c(Nc3ccc(OCc4cccc(C)n4)c(Cl)c3)ncnc2cc1OCCN1CCN(C)CC1` [compound 137]: the IC50 in assay [1] was 50 to 100 nM; in assay [2] it was 300 to 500 nM; in assay [3], 200 to 300 nM; in assay [4], 200 to 300 nM; in assay [5], 300 to 500 nM; in assay [6], 50 to 100 nM. The IC50 in assay [7] and in assay [8] was 50 to 100 nM each time.

On to `C=CC(=O)Nc1cc2c(Nc3ccc(OCc4cccc(C)n4)c(Cl)c3)ncnc2cc1OCCCN1CC(OC)C1` [compound 138], for which the IC50 in assay [1] was in the range of 30 to 50 nM; in assay [2], 50 to 100 nM; in assay [3], 100 to 200 nM; in assay [4] it was 100 to 200 nM; in assay [5], 50 to 100 nM; in assay [6] it was 50 to 100 nM. In addition, the figures for the IC50 in assay [7] and in assay [8] were 30 to 50 nM and 50 to 100 nM, respectively.

In the case of `C=CC(=O)Nc1cc2c(Nc3ccc(OCc4cccc(F)c4)c(Cl)c3)ncnc2cc1OCCN1CC2CCC(C1)O2` [compound 139], the IC50 in assay [1] was in the range of 30 to 50 nM; in assay [2], 100 to 200 nM; in assay [3], 500 to 1000 nM; in assay [4], 500 to 1000 nM; in assay [5], 100 to 200 nM; in assay [6], 100 to 200 nM. The IC50 in assay [7] lay in the range of 30 to 50 nM; in assay [8], 100 to 200 nM.

Regarding `C=CC(=O)Nc1cc2c(Nc3ccc(OCc4cccc(C)n4)c(Cl)c3)ncnc2cc1O[C@@H]1CCN(C)C1` [compound 140], the IC50 lay in the range of 100 to 200 nM in assay [1]; 300 to 500 nM in assay [2]; 300 to 500 nM in assay [3]; 300 to 500 nM in assay [4]; 300 to 500 nM in assay [5]; 100 to 200 nM in assay [6]. The IC50 in assay [7] and in assay [8] was 100 to 200 nM each time.

Regarding `C=CC(=O)Nc1cc2c(Nc3ccc(OCc4cccc(F)c4)c(Cl)c3)ncnc2cc1O[C@@H]1CCN(C)C1` [compound 141], the IC50 in assay [1] was 30 to 50 nM; in assay [2], 300 to 500 nM; in assay [3], 100 to 200 nM; in assay [4], 100 to 200 nM; in assay [5] it was 300 to 500 nM; in assay [6], 100 to 200 nM. The IC50 in assay [7] was in the range of 30 to 50 nM; in assay [8], 100 to 200 nM.

On to `C=CC(=O)Nc1cc2c(Nc3ccc(OCc4ccnc(C)c4)c(Cl)c3)ncnc2cc1OCCN1CCOCC1` [compound 142], for which the IC50 in assay [1] was 300 to 500 nM; in assay [2], above 1000 nM; in assay [3], 500 to 1000 nM; in assay [4], 500 to 1000 nM; in assay [5], above 1000 nM; in assay [6], 100 to 200 nM. For the same molecule, the IC50 in assay [7] was 300 to 500 nM; in assay [8] it was 100 to 200 nM.

As for `C=CC(=O)Nc1cc2c(Nc3ccc(OCc4cccc(F)c4)c(Cl)c3)ncnc2cc1OCCN1CC(OC)C1` [compound 143], the IC50 lay in the range of 30 to 50 nM in assay [1]; 100 to 200 nM in assay [2]; 200 to 300 nM in assay [3]; 200 to 300 nM in assay [4]; 100 to 200 nM in assay [5]; 50 to 100 nM in assay [6]. Also, the figures for the IC50 in assay [7] and in assay [8] were 30 to 50 nM and 50 to 100 nM, respectively.

(Values after patent US11034672B1, “Tyrosine kinase inhibitor compositions, methods of making and methods of use” (Black Diamond Therapeutics, Inc., priority 2018, dated 2021).)
